The subject of data set [1] is cellular peroxide levels in human epidermal keratinocytes. Description: Cellular peroxide levels in keratinocytes, DCFH-DA dye and flow cytometry, with and without exogenous H2O2. It counts as cell-based. As for the experimental part:
Hydrogen peroxide can induce damages to skin cells. The dermal protective efficacy of Pal-hexapeptide was assessed by measuring basal peroxide levels in the presence and absence of the compound.
Basal peroxide production, generated by normal cellular metabolism, induce gradual development of low levels of peroxide-specific cellular fluorescence.
Extracellular peroxides (e.g., H2O2 added exogenously) can permeate the cell membrane and cause a rapid and dramatic increase in the peroxide-specific fluorescence of the cell. Cellular peroxides levels can be measured by flow cytometry using the peroxide-specific dye, 2′,7′-dichlorofluorescein diacetate (DCFH-DA). DCFH-DA is initially non-fluorescent and is rapidly concentrated within living cells by an enzyme-dependent process. […] The results of the assay indicates if a test compound functions as an oxidant or an anti-oxidant in a cellular system. If the test article functions as an anti-oxidant, this assay can also be used to determine if the test compound can permeate the cell membrane to quench intracellular peroxide or if it can only affect extracellular peroxide levels (Bass et al., 1983, J. Immunol. 130:1910-1917; Bombick et al., 1992, Toxicol. Meth. 2:255-264).
Human primary keratinocytes, generally on the third passage, were seeded in T75 flasks and cultured until 70-80% confluent. A cell suspension was created and these cells were loaded with the dye DCFH-DA. The pre-incubated cells were exposed to dilutions of the Pal-hexapeptide having the amino acid sequence SEQ ID NO: 2 in two triplicate sets per dilution. One triplicate set was incubated with H2O2 (exogenous source of peroxide), and both sets were stained with Propidium Iodide. Cell viability and peroxide production were determined by fluorescence readings on a FACScan flow cytometer. Peroxide value increases or decreases of 25% or more compared to vehicle control values are considered biologically significant.

For data set [2], the system named is UVA-bleaching of beta-carotene. Description: UVA bleaching of beta-carotene on forearm skin, Color Index by CHROMAMETER
The conditions noted are these: 0.1% gel on human forearm, UVA. It counts as in vivo, human. How it is done:
In-vivo method for assessing the protective effects of cosmetic products. Bleaching of carotenoids have been used to evaluate the auto-oxidation activity of natural products. The relative efficacy of scavengers of lipid peroxyl free radicals after application to the skin was assessed by measuring the UVA-bleaching of beta-carotene as a function of the energy exposure.
A CHROMAMETER colorimeter (TM, Minolta Model CR-300) was used to measure changes in color by expressing the color of measured surfaces numerically in L*a*b* color space which is a system recommended by the CIE (Commission Internationale de I'Eclairage) for skin color assessment. In this color space, L* is the luminance and gives the relative brightness from total black (L*=0) to total white (L*=100). The a* value represents the balance between the reds (positive values) and the greens (negative values). The b* value represents the balance between the yellows (positive values) and the blues (negative values). The b* value most closely describes the intensity of the orange color of the β-carotene stain and is in direct correlation with the Color Index, I. The CHROMAMETER provides a means by which oxidative damage caused by free radicals and, conversely, the prevention of oxidation by free radical scavengers, can be measured. Free radical oxidation induced by UVA radiation elicits a bleaching and reduction of color of beta-carotene stain. The bleaching and prevention of bleaching by a test material can be measured by the CHROMAMETER. Bleaching is reported as the change in b* versus UVA Irradiation Energy. It can also be expressed in terms of a Color Index, I, defined as: I=[(bn*−bi*)/(b0*−bi*)]×100 where, bn* is the value of b* measured after n J/cm^2 of irradiation of the area treated with the cosmetic formulation and painted with the β-carotene; b0* is the value of b* after application of the beta-carotene but before irradiation; and bi* is the value of b* before application of the beta-carotene. This index compensates for any effects of skin color on bn* and b0*. Bleaching will cause bn* value and I value (as a percentage) to decrease. Prevention of bleaching will result in higher I values or less reduction in I value when exposed to radiation.
The designated forearm of impaneled subjects was cleansed with a 70% isopropyl alcohol prep pad (Medium, Dynarex) and allowed to dry. Test sites were selected on the volar surface of the designated forearm of each subject, with each test site defined by the open, central area of a self-adhesive ring (Professional ProFoot™ Products, P.P.R. Co, Inc.). The adhesive side of the rings were placed directly on the skin. The rings were used to retain the test material and beta-carotene solution as well as to function as a guide for taking measurements with the CHROMAMETER.
Gel formulations (0.1% Pal-hexapeptide) and (0.1% hexapeptide) were applied to the forearm according to a randomized schedule. Additional sites were treated with a beta-carotene control, a positive control (internal control) and an untreated control. Treatment of the test sites were randomized for each subject.
Prior to application of the test materials or beta-carotene, the initial b* parameter was measured using the CHROMAMETER and recorded for all duplicate test sites of the forearm (Baseline). Approximately 2 mg/cm^2 of each material was applied to the designated test site and spread manually with a finger cot to ensure even distribution. Sites designated as untreated, with or without beta-carotene, remained untreated at this time. The test materials and internal control were allowed to incubate with the skin surface for a period of fifteen (15) minutes. After this incubation period, b* measurements were recorded for all sites (Product Baseline).
A solution of beta-carotene in a mixture of capric and caprylic triglycerides was applied to all treated sites. The b* parameter is again measured and recorded (beta-carotene Baseline). […]

Each structure is given as a SMILES string. Peptide text beside a SMILES is read from it. * marks the point of attachment. Palmitoyl = CCCCCCCCCCCCCCCC(=O)*

Consider `CCCCCCCCCCCCCCCC(=O)N[C@@H](Cc1ccccc1)C(=O)N[C@@H](CO)C(=O)N[C@@H](CCCNC(=N)N)C(=O)N[C@@H](Cc1ccc(O)cc1)C(=O)N[C@@H](C)C(=O)N[C@@H](CCCNC(=N)N)C(=O)O` [Pal 6 mer, Pal-FSRYAR] (Palmitoyl-FSRYAR-OH; C-terminus assumed), for which the “peroxide level, % of the control, endogenous peroxide assay without exogenous H2O2” value in data set [1] (0.79 mM, endogenous peroxide) is on record as 40.21%. Also, the “peroxide level, % of the control, assay with exogenous added peroxide” value in data set [1] (0.79 mM, exogenous H2O2 added) was 9.88%. Moreover, the “Cell viability, expressed as % of non-viable, treated versus not treated cells” value in data set [1] (keratinocytes, Propidium Iodide staining) was “about the same”. In data set [2], the “preventing the bleaching of beta-carotene compared to the beta-carotene control” value is recorded as “effective as a free radical scavenger”.

Values taken from patent publication US8334253B2, “Cosmetic and dermatological formulations of MNTF peptides” (Dermacare Neuroscience Institute, priority 2008, dated 2012).
